According to patent US7638639B2, “Substituted pyrrolidine and related compounds” (Theravance, Inc., priority 2003, dated 2009):

System: methacholine-induced decrease in mean arterial pressure
Experiment: Methacholine-induced depressor responses in conscious guinea pigs
Type: in vivo
Settings: guinea pig, inhalation
Excerpt: Methacholine-Induced Depressor Responses in Conscious Guinea Pigs
Healthy, adult, male Sprague-Dawley guinea pigs (Harlan, Indianapolis, Ind.), weighing between 200 and 300 g were used in these studies. Under isoflurane anesthesia (to effect), animals were instrumented with common carotid artery and jugular vein catheters (PE-50 tubing). The catheters were exteriorized utilizing a subcutaneous tunnel to the subscapular area. All surgical incisions were sutured with 4-0 Ethicon Silk and the catheters locked with heparin (1000 units/mL). Each animal was administered saline (3 mL, SC) at the end of surgery as well as buprenorphine (0.05 mg/kg, IM). Animals were allowed to recover on a heating pad before being returned to their holding rooms.
Approximately 18 to 20 hours following surgery, the animals were weighed and the carotid artery catheter on each animal was connected to a transducer for recording arterial pressure. Arterial pressure and heart rate was recorded using a Biopac MP-100 Acquisition System. Animals were allowed to acclimate and stabilize for a period of 20 minutes.
Each animal was challenged with methylcholine (MCh) (0.3 mg/kg, iv) administer through the jugular venous line and the cardiovascular response was monitored for 10 minutes. […] At 1.5 and 24 h post-dosing, the animals were re-challenged with MCh (0.3 mg/kg, iv) and the hemodynamic response was determined. […]

`CNCCCCCCCCN1CC[C@@H](C(C(N)=O)(c2ccccc2)c2ccccc2)C1` [Example 1, 2-[(S)-1-(8-Methylaminooctyl)pyrrolidin-3-yl]-2,2-diphenylacetamide] was tested, and the “apparent lung-selectivity index (anti-depressor ID50 / bronchoprotective ID50)” value was “greater than 5”.
